Test results from patent publication US9410956B1, “Micro-RNA profiling in ovarian cancer” (University of South Florida, priority 2008, dated 2016).

Key:
[1] = system: A2780CP cells; assay: MTT cell viability assay after knockdown of miR-214; type: cell-based, human; conditions: knockdown of miR-214 alone, 150 pMol oligonucleotide per well
Method: (§1) FIG. 4B: An image showing an MTT assay. The 2′-O-me-anti-miR-214- or scramble 2′-O-me-transfected A2780CP cells were treated with 20 uM of cisplatin or DMSO vehicle for the indicated times and examined for cell viability.
2′-O-methyl (2′-O-me) oligoribonucleotides were synthesized by Integrated DNA Technologies. The sequences of 2′-O-methyl-anti-miR-214 and -miR-199a* are: 5′-[…]-3′ (SEQ ID NO: 1) and 5′-[…] UGUA-3′ (SEQ ID NO: 3). 2′-O-me-scrambled miR (5′-[…]-3′) (SEQ ID NO: 15) was used as a control. Cells were grown in 6-well plate (1.7×10^6 cells/well) for 24 h and transfected with 150 pMol of 2′-O-me oligoribonucleotides per well using Lipofectamine 2000. RNA and protein were extracted after 72 h transfection.
(§2) A2780CP cells were transfected with 2′-O-methyl-anti-miR-214. The cells transfected with 2′-O-methyl-scramble-miR were used as control. […] Further, the cells were treated with cisplatin or vehicle DMSO.

[2] = system: miR-214; assay: qRT-PCR of miR-214 level after 2′-O-methyl oligonucleotide transfection; type: cell-based, human; conditions: A2780CP cells, 72 h after transfection
Method: FIG. 4A: An image showing A2780CP, a cisplatin-resistant cell line and expressing elevated levels of endogenous miR-214, was transfected with 2′-O-me-anti-miR-214 or scramble 2′-O-me oligonucleotides and assayed with qRT-PCR with primers of miR-214 (top) and U6 (bottom).
Expression of miRNAs was also analyzed by RNase protection or mirVana qRT-PCR miRNA detection assay. For RNase protection assay, enriched small RNA was purified using the miRVana miRNA Isolation Kit (Ambion). The mirVana™ miRNA probe construction kit (Ambion) was used to synthesize the ^32P-labeled miR-214 probe. Probe hybridization and RNase protection were then carried out using the mirVana™ miRNA detection kit (Ambion) according to manufacturer's instructions. After hybridization and RNase treatment, the double-strand products were resolved in a 15% polyacrylamide 8 M urea denaturing gel and visualized using phosphoimaging and autoradiography. mirVana qRT-PCR was performed according to the manufacturer's protocol (Ambion). PCR products were analyzed by electrophoresis on a 7.5% polyacrylamide gel in 0.5×TBE and visualized by ethidium bromide staining.
2′-O-methyl (2′-O-me) oligoribonucleotides were synthesized by Integrated DNA Technologies. The sequences of 2′-O-methyl-anti-miR-214 and -miR-199a* are: 5′-[…]-3′ (SEQ ID NO: 1) and 5′-[…] UGUA-3′ (SEQ ID NO: 3). […]

[3] = system: PTEN; assay: Immunoblot of PTEN protein after knockdown of miR-214 in A2780CP cells; type: cell-based, human; conditions: 72 h
Method: (§3) FIG. 2B: An image showing miR-214 reduces PTEN protein but not mRNA levels. HIOSE-80 cells (left panels) were transfected with pcDNA3.1/V5-His-Topo-miR-214, -miR199a* and vector alone and immunoblotted with indicated antibodies (panels 1-4). The expression of miR-214 and miR-199a* was determined by qRT-PCR (panels 5 and 6). PTEN mRNA level was measured by RT-PCR (panel 8). U6 (panel 7) and GAPDH (bottom panel) were used for controls. Middle and right panels show knockdown of miR-214 inducing PTEN expression. A2780CP cells were transfected with antisense 2′-O-methyl oligonucleotide targeting miR-214 at concentration of […] (6 well plate) with Lipofectamine 2000. Anti-miR199a* and scramble 2′-O-methyl oligonucleotide were used as controls. After incubation of 72 h, cells were lysed and immunoblotted with indicated antibodies (middle).
(§4) 2′-O-methyl (2′-O-me) oligoribonucleotides were synthesized by Integrated DNA Technologies. The sequences of 2′-O-methyl-anti-miR-214 and -miR-199a* are: 5′-[…]-3′ (SEQ ID NO: 1) and 5′-[…] UGUA-3′ (SEQ ID NO: 3). 2′-O-me-scrambled miR (5′-[…]-3′) (SEQ ID NO: 15) was used as a control. Cells were grown in 6-well plate (1.7×10^6 cells/well) for 24 h and transfected with 150 pMol of 2′-O-me oligoribonucleotides per well using Lipofectamine 2000. RNA and protein were extracted after 72 h transfection. […]

[4] = system: Akt; assay: Immunoblot of phospho-Akt and Akt substrates after knockdown of miR-214 in A2780CP cells; type: cell-based, human; conditions: 72 h
Method: as §3, §4

[5] = system: A2780CP cells; assay: Cisplatin-induced apoptosis after knockdown of miR-214 (MTT, subG1 flow cytometry); type: cell-based, human; conditions: 20 uM cisplatin
Method: as §1
FIG. 4C: An image showing flow cytometry. Indicated cells were treated with cisplatin or DMSO for 12 h and the subG1 population was identified by flow cytometry.
as §2

[6] = system: PTEN; conditions: ovarian cancer cell lines (Schondorf et al. 2004); cited from earlier work
[7] = system: ovarian cancer; conditions: adjuvant chemotherapy, ovarian cancer patients (Aghajanian 2004); cited from earlier work

Molecule: 5′-CUGCCUGUCUGUGCCUGCUGU-3′ (all 2'-O-methyl, backbone not given here) [2′-O-methyl-anti-miR-214, antisense 2′-O-methyl oligoribonucleotide targeting miR-214]
- reduction of cell survival [1]: about 20%
- level of miR-214 [2]: significantly decreased
- protein level of PTEN [3]: increased
- phosphorylation levels of Akt and Akt substrates GSK3β and p70S6K [4]: decreased
- sensitization to cisplatin-induced apoptosis [5]: considerably sensitized

Molecule: Nc1ncn([C@H]2C[C@H](O)[C@@H](CO)O2)c(=O)n1 [5-aza-2′ deoxycytidine]
- PTEN protein expression [6]: failed to restore

Molecule: N.N.[Cl][Pt][Cl] [cisplatin]
- clinical response (share of patients) [7]: approximately 80%
